{
  "source": "paper PMC10200032",
  "about": "(Pharmacological Reports, 2023)",
  "origin": "cited, not measured here",
  "test_system": "CVB4",
  "conditions": "reference drug in earlier benzoquinazoline studies",
  "data": [
    {"smiles": "NC(=O)c1ncn([C@@H]2O[C@H](CO)[C@@H](O)[C@H]2O)n1", "note": "[ribavirin]", "values": [
      {"measurement": "EC50 against CVB4", "result": 29, "unit": "µg/mL"}
    ]}
  ]
}
